Measurements reported in patent US11740249B2, “Recognition of cellular target binding by a bioactive agent using intracellular bioluminescence resonance energy transfer” (Promega Corporation, priority 2012, dated 2023).

Legend:
[1] = target: T1, NANOLUC-HDAC6 fusion protein (Homo sapiens, UniProt Q9UBN7); assay: Intracellular BRET tracer binding, NANOLUC-HDAC6 in HEK293 cells (Example 1); conditions: live HEK293 cells, compared to SAHA-TMR (PBI-4967)
T1 construct: expressed in transfected cells; host or cells: HEK293
Protocol: In this example, conjugates of suberoylanilide hydroxamic acid (SAHA), an inhibitor of histone deacetylase 6 (HDAC6), and a PBI dye (SAHA-TOM (PBI-4968); See FIGS. 8A-B) or standard dye (SAHA-TAMRA (PBI-4967); See FIGS. 8A-B) were utilized in an intracellular BRET assay using a NANOLUC-HDAC fusion protein (SEQ ID NO: 3).
HEK293 cells were transfected using FuGene HD (Promega Corp.) with plasmid DNA encoding a NANOLUC-HDAC6 fusion protein. NANOLUC-HDAC6 DNA was diluted 1:1000 with a promoterless carrier DNA (pGEM3Z) to yield a final concentration of 50 ng/well total DNA in 96-well plate format (at a seeding density of 20,000 cells/well). Twenty-four hours post-transfection, cells were then incubated with serially-diluted tracer in the presence or absence of a molar excess of unlabeled SAHA (as a specificity control). Following equilibration with the drug tracers, furimazine (a coelenterazine derivative substrate for NANOLUC; Promega Corp.) was added at a concentration of 20 uM, and BRET was quantified on a Varioskan luminometer. The specific BRET signal was calculated by subtracting the non-specific signal (in the presence of unlabeled SAHA) from the signal generated from the SAHA tracer alone.

NANOLUC-HDAC6 = target: T2, NANOLUC-HDAC6 (Homo sapiens, UniProt Q9UBN7); assay: BRET compound panel screen by competitive displacement of SAHA-TOM, NANOLUC-HDAC6 in HEK293 cells (Example 15); type: binding; conditions: 1 uM SAHA-TOM (PBI-4968), 2 h
T2 construct: expressed in transfected cells; host or cells: HEK293
T2 sequence (Q9UBN7 with tags, fused parts or gaps): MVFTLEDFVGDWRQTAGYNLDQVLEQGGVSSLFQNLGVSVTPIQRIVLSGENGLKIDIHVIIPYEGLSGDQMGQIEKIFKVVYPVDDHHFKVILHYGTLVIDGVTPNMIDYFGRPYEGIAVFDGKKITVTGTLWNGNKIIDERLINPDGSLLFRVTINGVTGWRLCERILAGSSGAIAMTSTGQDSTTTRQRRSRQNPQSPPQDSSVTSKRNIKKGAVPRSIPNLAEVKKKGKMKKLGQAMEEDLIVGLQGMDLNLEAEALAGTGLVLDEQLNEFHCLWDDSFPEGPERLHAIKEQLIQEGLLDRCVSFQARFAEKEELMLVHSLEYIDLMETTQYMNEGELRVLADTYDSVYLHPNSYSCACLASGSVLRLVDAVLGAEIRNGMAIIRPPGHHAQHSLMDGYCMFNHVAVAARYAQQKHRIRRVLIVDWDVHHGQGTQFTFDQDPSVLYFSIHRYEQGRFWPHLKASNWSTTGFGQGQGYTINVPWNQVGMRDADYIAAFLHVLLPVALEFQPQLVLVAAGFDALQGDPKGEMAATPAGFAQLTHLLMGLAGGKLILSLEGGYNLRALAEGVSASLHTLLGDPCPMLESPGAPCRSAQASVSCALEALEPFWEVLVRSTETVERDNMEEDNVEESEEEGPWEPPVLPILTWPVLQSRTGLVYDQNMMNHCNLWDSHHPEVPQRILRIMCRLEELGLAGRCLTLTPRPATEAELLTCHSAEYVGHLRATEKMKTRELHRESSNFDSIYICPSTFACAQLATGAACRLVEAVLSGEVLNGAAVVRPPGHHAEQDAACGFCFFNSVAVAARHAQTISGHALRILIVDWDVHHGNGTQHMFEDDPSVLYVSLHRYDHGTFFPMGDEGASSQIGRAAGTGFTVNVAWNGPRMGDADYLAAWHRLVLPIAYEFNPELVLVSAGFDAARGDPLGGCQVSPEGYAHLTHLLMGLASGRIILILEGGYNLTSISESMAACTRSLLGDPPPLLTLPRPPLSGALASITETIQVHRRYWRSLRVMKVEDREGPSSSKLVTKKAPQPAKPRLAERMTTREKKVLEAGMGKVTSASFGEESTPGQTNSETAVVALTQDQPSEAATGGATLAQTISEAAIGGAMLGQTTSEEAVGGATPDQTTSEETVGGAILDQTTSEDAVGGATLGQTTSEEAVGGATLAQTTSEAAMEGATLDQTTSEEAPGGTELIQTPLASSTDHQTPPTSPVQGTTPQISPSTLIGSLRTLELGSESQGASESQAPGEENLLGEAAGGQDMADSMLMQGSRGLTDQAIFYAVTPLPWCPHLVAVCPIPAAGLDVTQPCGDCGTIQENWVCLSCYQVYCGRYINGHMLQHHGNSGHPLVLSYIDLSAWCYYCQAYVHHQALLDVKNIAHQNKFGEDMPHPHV

T1 sequence (Q9UBN7 with tags, fused parts or gaps): as above

| specific BRET signal ([1]; NANOLUC-HDAC6 DNA diluted 1:1000) | EC50 value for binding within living cells [1] | SMILES | binding efficiency to HDAC6 (competitive displacement of tracer) (NANOLUC-HDAC6) |
| --- | --- | --- | --- |
| superior, specific BRET signal | left-shifted | O=C(CCCCCCC(=O)Nc1ccc(CNC(=O)c2ccc(C(=O)O)c(C3=c4cc5c6c(c4Oc4c3cc3c7c4CCCN7CCCC3)CCC[N+]=6CCCC5)c2)cc1)NO [PBI-4968] |  |
|  |  | O=C(CCCCCCC(=O)Nc1ccccc1)NO [SAHA, suberoylanilide hydroxamic acid] | high binding efficiency |
